The METLIN SMRT retention time set (Domingo-Almenara et al. 2019)

Assay: gradient 5% acetonitrile 3 min, to 50% in 2 min, to 85% in 15 min, held 3 min, 100 µL/min
Details: column: Zorbax Extend-C18 2.1 x 50 mm; eluents: water / acetonitrile, 0.1% formic acid
Outline: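 In both positive and negative ionization mode, a quadrupole time-of-flight mass spectrometer coupled to HPLC analyzed pure standards run in mixtures of ~100 molecules. The Zorbax Extend-C18 column (2.1 × 50 mm, 1.8 μm) was operated at 100 μL/min with water and acetonitrile, each containing 0.1% formic acid. The dead volume was 40 μL and the dwell volume 900 μL. Retention time came from adduct peaks that were computationally picked and individually inspected by hand.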

Row | SMILES | RP-LC retention time
1 | O=C(CN1CCN(C(=O)Nc2ccc(Cl)cc2)CC1=O)N1CCN(c2ccccn2)CC1 | 592 s
2 | CCN1C(=O)Cc2cc(C(=O)NC3CCCCC3)ccc21 | 736 s
3 | CN1Cc2ccccc2-n2ccnc2C12CCN(C(=O)c1cccc(F)c1)CC2 | 614 s
4 | Cc1ccc(CNC(=O)CCn2nc(C)c3c(C)n(-c4ccccc4)nc3c2=O)o1 | 734 s
5 | Cc1nc(C)c(C(=O)Nc2ccc(F)c(C)c2)s1 | 810 s
6 | Cc1ccc2c(c1)C(=O)NC1(CCN(C(=O)c3ccccc3)CC1)N2C | 748 s
7 | COc1cc(OC)c(NC(=O)NCC(c2cccnc2)c2cn(C)c3ccccc23)cc1Cl (configuration not stated) | 741 s
8 | CCCCS(=O)(=O)N1CCc2c(c(-c3nnc(-c4ccc(F)cc4)o3)nn2C)C1 | 893 s
9 | O=C(NCc1csc(C2CCN(C(=O)c3ccc(F)c(F)c3)CC2)n1)C1CC1 | 705 s
10 | CCc1ccc(C(C)NC(=O)c2ccc3[nH]cc(C(=O)C(=O)N4CCCCCC4)c3c2)cc1 (configuration not stated) | 936 s
11 | Cn1c(=O)n(C)c2cc(CNCCc3ccc(Cl)cc3)ccc21 | 630 s
12 | Cn1c(C(=O)NCCCN2CCCC2=O)cc2c(=O)oc3ccccc3c21 | 668 s
13 | O=C(Nc1cccnc1)C1CCN(S(=O)(=O)Cc2ccccc2)CC1 | 626 s
14 | CCN(CC)CCCNC(=O)c1cccn1-c1nnc(N2CCCC2)s1 | 562 s
15 | O=C(Cn1nc2c(Oc3ccccc3)nccn2c1=O)Nc1cc(C(F)(F)F)ccc1Cl | 960 s
16 | COc1ccc(-c2cc3nn(CC(=O)NC(C)(C)C)c(=O)n3c(C)n2)cc1 | 842 s

Row | SMILES | RP-LC retention time
17 | O=C(NCCc1ccco1)c1cc2n(n1)CCCN(Cc1cccc(F)c1)C2=O | 751 s
18 | Cc1cc(C(=O)Nc2nnc(-c3ccn(C)n3)o2)c(C)o1 | 617 s
19 | COc1ccc(-c2noc(C3CCCN3C(=O)Nc3ccc(C)cc3)n2)cc1 (configuration not stated) | 830 s
20 | O=c1ccc(-c2cccs2)nn1CCNS(=O)(=O)c1ccccc1C(F)(F)F | 779 s
21 | COc1ccccc1Oc1ccc(S(=O)(=O)N2CCCC2)cc1 | 914 s
22 | Nc1nc(N2CCC3(CC2)OCCO3)ncc1C(=O)NCc1ccccc1F | 651 s
23 | CC(C)CC(=O)Nc1nc(-c2ccc3c(c2)N(C)C(=O)C(C)O3)cs1 (configuration not stated) | 921 s
24 | Cn1nc(-c2nnc(-c3ccccc3)o2)c2c1CCN(S(=O)(=O)c1ccc(C#N)cc1)C2 | 897 s
25 | CCN(CC)c1ccc(Nc2nc(-c3ccc(OC)cc3)cs2)cc1 | 742 s
26 | CCN1c2cc(F)ccc2C(=O)NC12CCN(C(=O)c1ccc(F)cc1)CC2 | 714 s
27 | CCCN1C(=O)C(NC(=O)c2cccc(OC)c2)(C(F)(F)F)C(C(=O)OC)=C1C (configuration not stated) | 946 s
28 | Cc1nn(-c2nc(-c3ccc(Cl)cc3)cs2)c(C)c1CC(=O)N1CCCC1 | 1120 s
29 | O=C(Nc1nc2ccc([N+](=O)[O-])cc2s1)c1ccc(S(=O)(=O)N2CCCCC2)cc1 | 1020 s
30 | O=C(N[C@H]1C[C@@H]2C[C@H]1CN2C(=O)Cc1ccc(OC(F)(F)F)cc1)c1ccccc1 | 836 s
31 | Cc1ccc(Nc2c(-c3nc(C)no3)cnc3nc(C)ccc23)c(F)c1 | 793 s

The next lines start with the values.

Row | RP-LC retention time | SMILES
32 | 737 s | Cc1nc(CC(=O)Nc2ccc(F)cc2C)cs1
33 | 556 s | O=C(C1CC(=O)N(c2ccc(F)cc2)C1)N1CCN(CCn2cccn2)CC1 (configuration not stated)
34 | 1360 s | CCOc1ccc(-c2csc(Cc3nc(-c4ccc(Cl)cc4)no3)n2)cc1
35 | 920 s | COc1ccc(-c2noc(C3CCCN3C(=O)Nc3ccccc3Cl)n2)cc1 (configuration not stated)
36 | 1010 s | Cc1ccc(F)c(NC(=O)c2nc(C)oc2C)c1
37 | 751 s | CN1C(=O)CCc2cc(NS(=O)(=O)Cc3cccc(Cl)c3)ccc21
38 | 764 s | CN1c2ccc(F)cc2C(=O)NC12CCN(C(=O)Cc1ccccc1)CC2
39 | 1030 s | O=C(NC1(c2nc(-c3cccnc3)no2)CCCCC1)c1ccc(F)c(Cl)c1
40 | 788 s | O=C(Nc1cccn2nc(C3CC3)nc12)c1cccs1
41 | 764 s | COc1ccc(-n2c(=O)n(C)c(=O)c3cc(C(=O)NCc4ccco4)cnc32)cc1
42 | 974 s | COC(=O)c1cn(CC(=O)N2CCc3ccccc32)c2ccccc12
43 | 554 s | COc1cc(CN2C[C@@H](CO)[C@H](N(C)C)C2)ccc1OC(C)C
44 | 619 s | CCC(C(=O)N1CCN(CC)CC1)n1c2ccccc2c2cnn(C)c(=O)c21 (configuration not stated)
45 | 556 s | O=C(NCCc1cn2c(n1)SCC2)C(=O)Nc1ccc2c(c1)OCCO2
46 | 805 s | CCN1c2ccccc2C(=O)NC12CCN(C(=O)c1cccc(C)c1)CC2
47 | 888 s | O=S(=O)(c1ccc(C(F)(F)F)cc1)N1CC(c2nc(-c3ccncc3)no2)C1
48 | 795 s | COc1ccc(-c2cn3ccn(-c4ccc(Br)cc4)c(=O)c3n2)cc1OC
49 | 792 s | CCCOc1ccc(CNC(=O)C2CCc3nc(N4CCOCC4)ncc3C2)cc1 (configuration not stated)

Row | RP-LC retention time | SMILES
50 | 973 s | CCCC(=O)Nc1nc(-c2ccccc2)c(C(=O)OCC)s1
51 | 724 s | CCn1cnc(S(=O)(=O)N2CCC(C(=O)Nc3ccc(OC)c(Cl)c3)CC2)c1
52 | 704 s | Cc1oc(-c2[nH]ncc2C(=O)N2CCCC2)cc1S(=O)(=O)Nc1cccc(F)c1
53 | 584 s | OCC1CN(c2ncccn2)CC12CCN(Cc1ccc3cc[nH]c3c1)CC2 (configuration not stated)
54 | 1110 s | O=c1c2cc(-c3ccc4c(c3)OCO4)nn2ccn1Cc1nc(-c2cccc(C(F)(F)F)c2)no1
55 | 834 s | O=C(NC1CCCC1)N1CCC(OCc2ccccc2)C1 (configuration not stated)
56 | 1000 s | CC1=NS(=O)(=O)N(C)C=C1C(=O)OCc1nc(-c2ccccc2C)no1
57 | 644 s | C=CCn1c(=O)c2cnc(Nc3ccc(N4CCN(C)CC4)cc3)nc2n1-c1cccc(C(C)(C)O)n1
58 | 1080 s | Cc1cc(C)cc(Nc2nc(C)cc3nn(CC(=O)NCc4ccccc4)c(=O)n23)c1
59 | 605 s | Cn1nnnc1C1CCCN(C(=O)C2CC2)C1 (configuration not stated)
60 | 708 s | Cc1nn(CC(=O)NCCc2c[nH]c3ccccc23)c(=O)c2noc(C)c12
61 | 664 s | Cc1cc(N2CCN(S(=O)(=O)c3ccc(F)c(F)c3)CC2)nc(N2CCOCC2)n1
62 | 1110 s | Cc1nc2cc(-c3noc(-c4cccc(F)c4)n3)ccc2o1
63 | 658 s | N#Cc1cnc2ccccc2c1N1CCC(C(=O)N2CCSCC2)CC1
64 | 881 s | Cc1nn(S(=O)(=O)N(C)C)c(C)c1Br
65 | 972 s | O=C(NC1CCCCC1)C1CCCN(c2nc3ccsc3c(=O)n2Cc2ccc(F)cc2)C1 (configuration not stated)
66 | 991 s | CC(C)c1ccc(NC(=O)Cn2nc(C(=O)N3CCCC3)c3ccccc32)cc1
67 | 851 s | COc1ccc(CC(=O)N2CCN(c3ccc(-c4nc(C)cs4)cn3)CC2)cc1
